For data set [1] the following is noted: in vivo; cited from earlier work.
The test system of another data set is SARS-CoV2. Nature of the data set: In-vitro experiments, time of drug addition relative to infection. As to conditions: added between 3 hours pre-infection and 3 hours after infection. It is filed as cell-based. As for the experimental part:
Less inhibition was detected when the drug was added after 12 hours post-infection (Our observation was consistent with the report by Agostini et al regarding GS-5734 (remdesivir) (Agostini M L, Andres E L, Sims A C, Graham R L, Sheahan T P, Lu X, Smith E C, Case J B, Feng J Y, Jordan R, Ray AS, Cihlar T, Siegel D, Mackman R L, Clarke M O, Baric R S, Denison M R. 2018. Coronavirus susceptibility to the antiviral remdesivir (GS-5734) is mediated by the viral polymerase and the proofreading exoribonuclease. mBio 9:e00221-18. https://doi.org/10.1128/mBio.00221-18.).
In carrying out the in vitro experiments, vero E6 cells (an African green monkey kidney cell line) were infected with SARS-CoV2 at a multiplicity of infection of 0.5 for 1 hour. The cells were washed with PBS and then incubated in OPTI-MEM (Invitrogen) medium with or without various concentrations of the following drug candidates: Artemether (from BiopharmaRx) Hydroxychloroquine (from Sigma Aldrich), Atazanavir (from Sigma Aldrich), and Efavirenz (from Sigma Aldrich), Fosamprenavir Calcium (from Sigma Aldrich), Saquinavir (from Sigma Aldrich) and Remdesivir (from AOBIOUS, INC., USA)

Here are results for two molecules from patent US12239629B2 (priority 2020, dated 2025).

Where only a bound is given, the exact number is not on record here.

The term LD50 denotes the dose expected to kill half of the subjects tested.

Take Chitosan: in data set [1], the LD50 is greater than 4000 mg/kg. Consider `COC(=O)NC(C(=O)NN(Cc1ccc(-c2ccccn2)cc1)C[C@H](O)[C@H](Cc1ccccc1)NC(=O)[C@@H](NC(=O)OC)C(C)(C)C)C(C)(C)C` (stereo partly drawn) [Atazanavir, methyl N-[(1S)-1-{N′-[(2S,3S)-2-hydroxy-3-[(2S)-2-[(methoxycarbonyl)amino]-3,3-dimethylbutanamido]-4-phenylbutyl]-N′-{[4-(pyridin-yl)phenyl]methyl} hydrazinecarbonyl}-2.2-dimethylpropyl]carbamate], for which the “inhibition by time of addition” value with SARS-CoV2 was “maximal inhibition”.
